Patent US20110207723A1, “NOVEL FUSED AMINODIHYDROTHIAZINE DERIVATIVE” (EISAI R&D MANAGEMENT CO., LTD., priority 2008, published 2011)
pIC50: −log10 of the molar value.

Tested on: Aβ42 production
Test: Quantification of Aβ peptide in culture of neurons from rat fetus brain (Aβ42 ELISA)
Type: cell-based
Settings: Neuron, 72 h, rat primary neuronal culture (embryonic day 18 Wistar rat cerebral cortex), medium collected three days after addition of compound, read-out: Aβ42 production reducing effect IC50
Method: Quantification of Aβ Peptide in Culture of Neurons from Rat Fetus Brain
Primary neuronal cultures were prepared from the cerebral cortex of embryonic day 18 Wistar rats (Charles River Japan, Yokohama, Japan). Specifically, the embryos were aseptically removed from pregnant rats under ether anesthesia. The brain was isolated from the embryo and immersed in an ice-cold L-15 medium (such as Invitrogen Corp. Cat #11415-064, Carlsbad, Calif., USA, or SIGMA L1518). The cerebral cortex was collected from the isolated brain under a stereoscopic microscope. The cerebral cortex fragments collected were enzymatically treated in an enzyme solution containing 0.25% trypsin (Invitrogen Corp. Cat #15050-065, Carlsbad, Calif., USA) and 0.01% DNase (Sigma D5025, St. Louis, Mo., USA) at 37° C. for 30 minutes to disperse the cells. Here, the enzymatic reaction was stopped by adding inactivated horse serum to the solution. The enzymatically treated solution was centrifuged at 1,500 rpm for five minutes to remove the supernatant. 5 to 10 ml of a medium was added to the resulting cell mass. Neurobasal medium (Invitrogen Corp. Cat #21103-049, Carlsbad, Calif., USA) supplemented with 2% B27 supplement (Invitrogen Corp. Cat #17504-044, Carlsbad, Calif., USA), 25 μM 2-mercaptoethanol (2-ME, WAKO Cat #139-06861, Osaka, Japan), 0.5 mM L-glutamine (Invitrogen Corp. Cat #25030-081, Carlsbad, Calif., USA), and Antibiotics-Antimycotics (Invitrogen Corp. Cat #15240-062, Carlsbad, Calif., USA) was used as the medium (Neurobasal/B27/2-ME). However, the above Neurobasal medium not supplemented with 2-ME (Neurobasal/B27) was used for the assay. The cells were redispersed by mild pipetting of the cell mass to which the medium was added. The cell dispersion was filtered through a 40-μm nylon mesh (Cell Strainer, Cat #35-2340, Becton Dickinson Labware, Franklin Lakes, N.J., USA) to remove the remaining cell mass, and thus a neuronal cell suspension was obtained. The neuronal cell suspension was diluted with the medium and then plated in a volume of 100 μl/well at an initial cell density of 5×10^5 cells/cm^2 in a 96-well polystyrene culture plate pre-coated with poly-L or D-lysine (Falcon Cat #35-3075, Becton Dickinson Labware, Franklin Lakes, N.J., USA coated with poly-L-lysine using the method shown below, or BIOCOAT™ cell environments Poly-D-lysine cell ware 96-well plate, Cat #35-6461, Becton Dickinson Labware, Franklin Lakes, N.J., USA). Poly-L-lysine coating was carried out as follows. 100 μg/ml of a poly-L-lysine (SIGMA P2636, St. Louis, Mo., USA) solution was aseptically prepared with a 0.15 M borate buffer (pH 8.5). […] of the solution was added to the 96-well polystyrene culture plate and incubated at room temperature for one or more hours or at 4° C. overnight or longer. Thereafter, the coated 96-well polystyrene culture plate was washed with sterile water four or more times, and then dried or rinsed with, for example, sterile PBS or medium, and used for cell plating. The plated cells were cultured in the culture plate at 37° C. in 5% CO2-95% air for one day. Then, the total amount of the medium was replaced with a fresh Neurobasal/B27/2-ME medium, and then the cells were cultured for further three days.
The drug was added to the culture plate on Day 4 of culture as follows. The total amount of the medium was removed from the wells, and 180 μl/well of Neurobasal medium not containing 2-ME and containing 2% B-27 (Neurobasal/B27) was added thereto. A solution of the test compound in dimethyl sulfoxide (hereinafter abbreviated as DMSO) was diluted with Neurobasal/B27 to a concentration 10-fold higher than the final concentration. 20 μl/well of the dilution was added to and sufficiently mixed with the medium. The final DMSO concentration was 1% or less. Only DMSO was added to the control group.
The cells were cultured for three days after addition of the compound, and the total amount of the medium was collected. […]

Row | SMILES | pIC50
1 | NC1=N[C@@]2(c3cc(-c4cccnc4F)ccc3F)COCC[C@H]2CS1 (racemic) [Example 61, (±)-(4aR*,8aS*)-8a-[2-fluoro-5-(2-fluoropyridin-3-yl)phenyl]-4,4a,5,6,8,8a-hexahydro-7-oxa-3-thia-1-azanaphthalen-2-ylamine] | 6.50
2 | NC1=N[C@@]2(c3cc(-c4cccnc4F)cs3)COCC[C@H]2CS1 (racemic) [Example 65, (±)-(4aR*,8aR*1-8a-[4-(2-fluoropyridin-3-yl)-thiophen-2-yl]-4,4a,5,6,8,8a-hexahydro-7-oxa-3-thia-1-azanaphthalen-2-ylamine] | 6.43
3 | N#Cc1ccc(C(=O)Nc2ccc(F)c([C@]34COCC[C@H]3CSC(N)=N4)c2)nc1 (relative stereo) [Example 1, N-[3-((4aR*,8aS*)-2-amino-4,4a,5,6-tetrahydro-7-oxa-3-thia-1-azanaphthalen-8a-yl)-4-fluorophenyl]-5-cyanopyridine-2-carboxamide] | 8.77
4 | NC1=N[C@@]2(c3cc(NC(=O)c4cnc(OCF)cn4)ccc3F)COCC[C@H]2CS1 (relative stereo) [Example 2, N-[348S*,8aR*)-2-amino-4,4a,5,6-tetrahydro-7-oxa-3-thia-1-azanaphthalen-8a-yl)-4-fluorophenyl]-5-fluoromethoxypyrazine-2-carboxamide] | 8.70
5 | NC1=N[C@@]2(c3cc(NC(=O)c4cnc(OC(F)F)cn4)ccc3F)COCC[C@H]2CS1 (relative stereo) [Example 3, N-[3-((4aR*,8aS*)-2-amino-4,4a,5,6-tetrahydro-7-oxa-3-thia-1-azanaphthalen-8a-yl)-4-fluorophenyl]-5-difluoromethoxypyrazine-2-carboxamide] | 9.00
6 | C[C@H]1C[C@H]2CSC(N)=N[C@@]2(c2cc(NC(=O)c3ccc(Cl)cn3)ccc2F)CO1 (relative stereo) [Example 6, N-[3-((4aR*,6S*,8aS*)-2-amino-6-methyl-4,4a,5,6-tetrahydro-7-oxa-3-thia-1-azanaphthalen-8a-yl)-4-fluorophenyl]-5-chloropyridine-2-carboxamide] | 8.92
7 | C[C@H]1C[C@H]2CSC(N)=N[C@@]2(c2cc(NC(=O)c3ccc(C#N)cn3)ccc2F)CO1 (relative stereo) [Example 7, N-[3-((4aR*,6S*,8aS*)-2-amino-6-methyl-4,4a,5,6-tetrahydro-7-oxa-3-thia-1-azanaphthalen-8a-yl)-4-fluorophenyl]-5-cyanopyridine-2-carboxamide] | 9.15
8 | C[C@H]1C[C@H]2CSC(N)=N[C@@]2(c2cc(NC(=O)c3ccc(C(F)(F)F)cn3)ccc2F)CO1 (relative stereo) [Example 8, N-[3-((4aR*,6S*,8aS*)-2-amino-6-methyl-4,4a,5,6-tetrahydro-7-oxa-3-thia-1-azanaphthalen-8a-yl)-4-fluorophenyl]-5-trifluoromethylpyridine-2-carboxamide] | 8.80
9 | C[C@H]1C[C@H]2CSC(N)=N[C@@]2(c2cc(NC(=O)c3cnc(OC(F)F)cn3)ccc2F)CO1 (relative stereo) [Example 9, N-[3-((4aR*,6S*,8aS*)-2-amino-6-methyl-4,4a,5,6-tetrahydro-7-oxa-3-thia-1-azanaphthalen-8a-yl)-4-fluorophenyl]-5-difluoromethoxypyrazine-2-carboxamide] | 9.22
10 | C[C@H]1C[C@H]2CSC(N)=N[C@@]2(c2cc(NC(=O)c3cnc(OCF)cn3)ccc2F)CO1 (relative stereo) [Example 10, N-[3-((4aR*,6S*,8aS*)-2-amino-6-methyl-4,4a,5,6-tetrahydro-7-oxa-3-thia-1-azanaphthalen-8a-yl)-4-fluorophenyl]-5-fluoromethoxypyrazine-2-carboxamide] | 9.00
11 | COC[C@H]1C[C@H]2CSC(N)=N[C@@]2(c2cc(NC(=O)c3ccc(C#N)cn3)ccc2F)CO1 (relative stereo) [Example 11, N-[3-((4aR*,6R*,8aS*)-2-amino-6-methoxymethyl-4,4a,5,6-tetrahydro-7-oxa-3-thia-1-azanaphthalen-8a-yl)-4-fluorophenyl]-5-cyanopyridine-2-carboxamide] | 9.15
12 | COC[C@H]1C[C@H]2CSC(N)=N[C@@]2(c2cc(NC(=O)c3cnc(C(F)F)cn3)ccc2F)CO1 (relative stereo) [Example 12, N-[3-((4aR*,6R*,8aS*)-2-amino-6-methoxymethyl-4,4a,5,6-tetrahydro-7-oxa-3-thia-1-azanaphthalen-8a-yl)-4-fluorophenyl]-5-difluoromethylpyrazine-2-carboxamide] | 8.96
13 | COC[C@H]1C[C@H]2CSC(N)=N[C@@]2(c2cc(NC(=O)c3ccc(Cl)cn3)ccc2F)CO1 (relative stereo) [Example 13, N-[3-((4aR*,6R*,8aS*)-2-amino-6-methoxymethyl-4,4a,5,6-tetrahydro-7-oxa-3-thia-1-azanaphthalen-8a-yl)-4-fluorophenyl]-5-chloropyridine-2-carboxamide] | 9.00
14 | COC[C@H]1C[C@H]2CSC(N)=N[C@@]2(c2cc(NC(=O)c3cnc(OCF)cn3)ccc2F)CO1 (relative stereo) [Example 14, N-[3-((4aR*,6R*,8aS*)-2-amino-6-methoxymethyl-4,4a,5,6-tetrahydro-7-oxa-3-thia-1-azanaphthalen-8a-yl)-4-fluorophenyl]-5-fluoromethoxypyrazine-2-carboxamide] | 9.10
15 | COC[C@H]1C[C@H]2CSC(N)=N[C@@]2(c2cc(NC(=O)c3cnc(OC(F)F)cn3)ccc2F)CO1 (relative stereo) [Example 15, N-[3-((4aR*,6R*,8aS*)-2-amino-6-methoxymethyl-4,4a,5,6-tetrahydro-7-oxa-3-thia-1-azanaphthalen-8a-yl)-4-fluorophenyl]-5-difluoromethoxypyrazine-2-carboxamide] | 9.40
16 | C[C@@H]1COC[C@]2(c3cc(NC(=O)c4ccc(Cl)cn4)ccc3F)N=C(N)SC[C@H]12 (relative stereo) [Example 23, N-[3-((4aR*,5S*,8aS*)-2-amino-5-methyl-4,4a,5,6-tetrahydro-7-oxa-3-thia-1-azanaphthalen-8a-yl)-4-fluorophenyl]-5-chloropyridine-2-carboxamide] | 7.92
17 | C[C@@H]1COC[C@]2(c3cc(NC(=O)c4ccc(C#N)cn4)ccc3F)N=C(N)SC[C@H]12 (relative stereo) [Example 24, N-[3-((4aR*,5S*,8aS*)-2-amino-5-methyl-4,4a,5,6-tetrahydro-7-oxa-3-thia-1-azanaphthalen-8a-yl)-4-fluorophenyl]-5-cyanopyridine-2-carboxamide] | 8.05
18 | C[C@@H]1COC[C@]2(c3cc(NC(=O)c4cnc(OC(F)F)cn4)ccc3F)N=C(N)SC[C@H]12 (relative stereo) [Example 25, N-[3-((4aR*,5S*,8aS*)-2-amino-5-methyl-4,4a,5,6-tetrahydro-7-oxa-3-thia-1-azanaphthalen-8a-yl)-4-fluorophenyl]-5-difluoromethoxypyrazine-2-carboxamide] | 7.85
19 | C[C@H]1COC[C@]2(c3cc(NC(=O)c4ccc(Cl)cn4)ccc3F)N=C(N)SC[C@H]12 (relative stereo) [Example 26, N-[3-((4aR*,5R*,8aS*)-2-amino-5-methyl-4,4a,5,6-tetrahydro-7-oxa-3-thia-1-azanaphthalen-8a-yl)-4-fluorophenyl]-5-chloropyridine-2-carboxamide] | 8.52
